# In patent US9803002B2, “Anti-wall teichoic antibodies and conjugates” (Genentech, Inc., priority 2013, dated 2017):
# Tested on: Wood46 strain of S. aureus
# Test: Macrophage intracellular killing assay with opsonized, washed bacteria
# Format: cell-based, Staphylococcus aureus
# Details: 10 μg/mL or 0.5 μg/mL
# Procedure: The Wood46 strain of S. aureus was incubated with 10 μg/mL or 0.5 μg/mL of S4497 antibody, Isotype control-AAC containing a cathepsin B cleavable linker, thio-trastuzumab HC A118C-MC-vc-PAB-(dimethyl-pipBOR) AAC-101, thio-S4497 HC WT (v8), LC V205C-MC-vc-PAB-(dimethylpipBOR) AAC-192, Isotype control-AAC containing a staphopain cleavable linker, thio-trastuzumab HC […]-MP-LAFG-PABC-(piperazinoBOR) (“core peptide” disclosed as SEQ ID NO: 128) or thio-S4497 HC v1-MP-LAFG-PABC-(piperazinoBOR) (“core peptide” disclosed as SEQ ID NO: 128) AAC-193 for 1 hour to permit binding of the AAC to bacteria (FIG. 32). To limit non-specific binding of the AAC, the opsonized bacteria were centrifuged, washed once and resuspended in buffer before being fed to murine macrophages. […] Antibody-antibiotic conjugate, thio-54497 LC v8-MP-LAFG-PABC-(piperazinoBOR) (“core peptide” disclosed as SEQ ID NO: 128)AAC-215 is efficacious in vivo in a MRSA infection model: […]
substance,measurement,value
thio-trastuzumab HC A1118C-MP-LAFG-PABC-(piperazinoBOR),killing of intracellular bacteria,no activity
